Data reported in patent US10829478B2, “5-[3-[piperazin-1-yl]-3-oxo-propyl]-imidazolidine-2,4-dione derivatives as ADAMTS 4 and 5 inhibitors for treating e.g. osteoarthritis” (Galapagos NV, priority 2016, dated 2020).
Read-outs that look alike come from different tables or passages of the source.

Tests used:
human ADAMTS4 = human ADAMTS4 (Homo sapiens (Human), UniProt O75173); assay: hADAMTS-4 TBIS-1 cleavage assay, Protocol 2; assay type: biochemical
rnADAMTS-5 (1-564-6H) = rnADAMTS-5 (1-564-6H) (Rattus norvegicus (Rat), UniProt Q6TY19); assay: Rat ADAMTS-5 TBIS-1 cleavage assay; assay type: biochemical; settings: 120 min at 37° C.; read-out: Rat ADAMTS-5 potency IC50
human ADAMTS-5 = human ADAMTS-5 (Homo sapiens (Human), UniProt Q9UNA0); assay: hADAMTS-5 TBIS-1 cleavage assay, Protocol 3; assay type: biochemical; settings: 90 min at 37° C., read-out: hADAMTS-5 potency IC50
Method: The reaction is initiated by adding to the assay plate TBIS-1 (10 μL, 4.5 μM, Anaspec) in the same buffer.
Finally, the fluorescence is read on the Envision (Perkin Elmer) after an incubation of 90 min at 37° C. (Excitation 485 nm, emission 530).

human ADAMTS6 = human ADAMTS6 (Homo sapiens (Human), UniProt Q9UKP5); assay: hADAMTS-6 fluorescent based protease assay (520 MMP FRET substrate XII); assay type: biochemical; settings: 37° C. for 2 h; read-out: hADAMTS-6 potency IC50
Summary of the method: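 ADAMTS6 (0.73 nM final) in 25 mM Tris pH 8.0, 0.05% CHAPS, 2.5 mM CaCl2 with compound dilution series (top 20 μM, 1/5 steps). Reaction started with 520 MMP FRET Substrate XII, incubated 2 h at 37 °C. Substrate cleavage read by fluorescence ex485/em530; IC50 determined.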

human MMP13 [1] = target: T1, human MMP13 (Homo sapiens (Human), UniProt P45452); assay: hMMP13 assay, Protocol 2 (390 MMP FRET Substrate I, Enzo enzyme); assay type: biochemical; settings: Protocol 2, human MMP13 (Enzo Life Sciences), read-out: hMMP-13 potency IC50
Method: (§1) Human MMP13 is preactivated by incubated the enzyme in the same buffer complemented with 1 mM freshly prepared p-Aminophenylmercuric acetate (AMPA) for 1 h at 37° C.

human MMP14 = human MMP14 (Homo sapiens (Human), UniProt P50281); assay: hMMP14 assay (390 MMP FRET Substrate I); assay type: biochemical; settings: human MMP14 (Biomol), read-out: hMMP-14 potency IC50
Method: The basis for the assay is the cleavage of the substrate 390 MMP FRET Substrate I (Anaspec Cat #AS-27076) by human MMP14 (Biomol, Cat #SE-259).
The reaction is initiated by adding to the assay plate 390 MMP FRET Substrate I (10 μL, 2.5 μM) in the same buffer.
Finally, the fluorescence is read on the Envision (Perkin Elmer) after an incubation of 60 min at room temperature (Excitation 485 nm, Emission 530).

human TACE = human TACE (Homo sapiens (Human), UniProt P78536); assay: biochemical
Method: Finally, the fluorescence is read on the Envision (Perkin Elmer) after an incubation of 75 min at room temperature (Excitation 485 nm, Emission 530).

human MMP13 [2] = target: T1, human MMP13; assay: hMMP13 assay, Protocol 1 (390 MMP FRET Substrate I, Chemicon enzyme); assay type: biochemical; settings: Protocol 1, human MMP13 (Chemicon), read-out: hMMP-13 potency IC50
Method: as §1

[3] = Protocol 2, 180 min at 37° C., read-out: ADAMTS4 potency IC50

rnADAMTS-5 (1-564-6H), sequence (Q6TY19 entry or part of it): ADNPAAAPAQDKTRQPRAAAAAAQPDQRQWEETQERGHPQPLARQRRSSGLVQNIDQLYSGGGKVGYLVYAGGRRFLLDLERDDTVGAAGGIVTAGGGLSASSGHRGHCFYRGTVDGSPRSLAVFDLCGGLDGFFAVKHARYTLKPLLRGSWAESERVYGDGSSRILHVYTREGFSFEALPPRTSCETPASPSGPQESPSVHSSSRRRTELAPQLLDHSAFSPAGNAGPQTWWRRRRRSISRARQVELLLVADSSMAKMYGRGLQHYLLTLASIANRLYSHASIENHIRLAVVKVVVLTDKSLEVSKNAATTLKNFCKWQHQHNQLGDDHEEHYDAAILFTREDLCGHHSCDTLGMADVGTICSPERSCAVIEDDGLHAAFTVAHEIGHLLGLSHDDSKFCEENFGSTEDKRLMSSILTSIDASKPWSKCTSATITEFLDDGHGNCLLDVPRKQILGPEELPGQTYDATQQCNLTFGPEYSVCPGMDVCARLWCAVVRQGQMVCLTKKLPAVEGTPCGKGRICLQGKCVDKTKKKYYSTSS
human ADAMTS6, sequence (Q9UKP5 other isoform, or with tags, fused parts or gaps): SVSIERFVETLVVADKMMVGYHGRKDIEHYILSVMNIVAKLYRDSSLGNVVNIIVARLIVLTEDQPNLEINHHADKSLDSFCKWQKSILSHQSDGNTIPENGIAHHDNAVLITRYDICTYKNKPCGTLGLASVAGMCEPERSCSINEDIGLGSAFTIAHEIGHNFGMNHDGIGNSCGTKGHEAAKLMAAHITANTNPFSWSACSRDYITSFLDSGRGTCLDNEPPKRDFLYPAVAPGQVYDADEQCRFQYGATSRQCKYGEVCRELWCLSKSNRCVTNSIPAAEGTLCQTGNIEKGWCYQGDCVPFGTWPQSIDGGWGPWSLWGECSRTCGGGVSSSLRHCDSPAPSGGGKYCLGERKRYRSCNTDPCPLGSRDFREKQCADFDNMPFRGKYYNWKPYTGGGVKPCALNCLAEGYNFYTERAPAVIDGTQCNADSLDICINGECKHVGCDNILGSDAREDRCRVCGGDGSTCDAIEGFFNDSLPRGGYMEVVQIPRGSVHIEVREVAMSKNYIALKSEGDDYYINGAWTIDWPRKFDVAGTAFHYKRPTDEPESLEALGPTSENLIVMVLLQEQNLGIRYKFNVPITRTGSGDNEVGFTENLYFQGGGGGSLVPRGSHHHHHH
human ADAMTS4, sequence (O75173 213-837): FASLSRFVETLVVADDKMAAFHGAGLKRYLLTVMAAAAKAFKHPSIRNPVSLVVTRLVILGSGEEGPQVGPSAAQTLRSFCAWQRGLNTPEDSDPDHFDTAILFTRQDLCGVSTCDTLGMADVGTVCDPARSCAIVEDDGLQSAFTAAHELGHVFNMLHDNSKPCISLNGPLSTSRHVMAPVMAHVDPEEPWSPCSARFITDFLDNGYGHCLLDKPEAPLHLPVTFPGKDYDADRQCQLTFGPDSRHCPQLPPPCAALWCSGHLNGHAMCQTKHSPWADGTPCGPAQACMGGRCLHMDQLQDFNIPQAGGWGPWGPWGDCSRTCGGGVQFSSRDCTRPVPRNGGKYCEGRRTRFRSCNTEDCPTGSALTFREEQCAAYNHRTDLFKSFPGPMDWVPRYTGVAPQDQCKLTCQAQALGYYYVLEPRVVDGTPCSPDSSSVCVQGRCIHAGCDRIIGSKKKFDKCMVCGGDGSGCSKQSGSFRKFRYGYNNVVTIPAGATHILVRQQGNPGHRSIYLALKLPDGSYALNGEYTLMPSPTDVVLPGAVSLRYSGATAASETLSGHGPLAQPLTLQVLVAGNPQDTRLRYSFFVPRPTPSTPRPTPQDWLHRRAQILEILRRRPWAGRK
human TACE, sequence (P78536 215-671): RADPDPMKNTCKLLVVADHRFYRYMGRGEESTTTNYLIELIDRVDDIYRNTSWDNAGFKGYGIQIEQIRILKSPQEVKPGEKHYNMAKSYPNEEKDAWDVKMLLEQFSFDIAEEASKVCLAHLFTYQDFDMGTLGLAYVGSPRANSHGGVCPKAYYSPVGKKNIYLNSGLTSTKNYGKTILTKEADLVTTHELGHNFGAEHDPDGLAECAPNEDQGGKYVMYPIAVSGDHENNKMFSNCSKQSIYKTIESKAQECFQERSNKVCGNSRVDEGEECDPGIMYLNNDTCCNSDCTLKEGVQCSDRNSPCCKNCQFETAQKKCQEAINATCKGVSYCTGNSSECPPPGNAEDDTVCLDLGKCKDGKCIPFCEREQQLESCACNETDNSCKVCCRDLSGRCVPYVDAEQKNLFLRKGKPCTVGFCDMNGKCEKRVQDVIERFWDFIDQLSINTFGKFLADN
human ADAMTS-5, sequence (Q9UNA0 262-930): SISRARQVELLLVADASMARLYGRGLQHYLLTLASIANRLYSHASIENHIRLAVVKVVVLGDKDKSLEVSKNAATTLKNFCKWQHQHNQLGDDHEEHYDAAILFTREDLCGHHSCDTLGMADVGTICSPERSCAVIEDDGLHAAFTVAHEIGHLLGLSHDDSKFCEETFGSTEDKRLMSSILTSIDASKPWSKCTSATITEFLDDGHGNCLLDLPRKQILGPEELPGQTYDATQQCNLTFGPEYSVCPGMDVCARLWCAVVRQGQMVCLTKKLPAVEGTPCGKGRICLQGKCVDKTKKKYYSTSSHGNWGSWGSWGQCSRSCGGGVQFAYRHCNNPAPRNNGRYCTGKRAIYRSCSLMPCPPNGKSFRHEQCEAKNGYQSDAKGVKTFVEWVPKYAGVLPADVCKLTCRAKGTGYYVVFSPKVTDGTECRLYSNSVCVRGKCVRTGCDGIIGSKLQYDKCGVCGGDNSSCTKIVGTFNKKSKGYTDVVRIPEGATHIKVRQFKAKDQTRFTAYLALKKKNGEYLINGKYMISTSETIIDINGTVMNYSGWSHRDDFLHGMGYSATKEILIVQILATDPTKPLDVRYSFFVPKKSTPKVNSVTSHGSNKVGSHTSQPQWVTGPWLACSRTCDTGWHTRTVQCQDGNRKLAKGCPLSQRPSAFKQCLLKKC

| Structure (SMILES) | IC50 (human ADAMTS4; [3]) | IC50 (rnADAMTS-5 (1-564-6H)) | IC50 (human ADAMTS-5) | IC50 (human ADAMTS6) | IC50 (human MMP13 [1]) | IC50 (human MMP14) | IC50 (human TACE) | IC50 (human ADAMTS4) | IC50 (human MMP13 [2]) |
| --- | --- | --- | --- | --- | --- | --- | --- | --- | --- |
| C[C@H]1CN(C(=O)CC[C@@]2(C)NC(=O)NC2=O)CCN1c1ccc(Cl)c(OC(F)(F)F)c1 [Cpd 86, (5R)-5-[3-[(3S)-4-[4-chloro-3-(trifluoromethoxy)phenyl]-3-methyl-piperazin-1-yl]-3-oxo-propyl]-5-methyl-imidazolidine-2,4-dione] | > 100 nM | > 100 nM | > 100 nM | 0.001 to 25 nM | > 100 nM | > 100 nM | > 100 nM | – | – |
| COc1cc(N2CCN(C(=O)[C@@H](C)C[C@@]3(c4ccccn4)NC(=O)NC3=O)CC2)cc(F)c1F [Cpd 54, (5 S)-5-[(2S)-3-[4-(3,4-difluoro-5-methoxy-phenyl)piperazin-1-yl]-2-methyl-3-oxo-propyl]-5-(2-pyridyl)imidazolidine-2,4-dione] | – | 0.001 to 25 nM | 0.001 to 25 nM | 0.001 to 25 nM | > 100 nM | > 100 nM | > 100 nM | 25 to 50 nM | – |
| COc1cc(N2CCN(C(=O)[C@@H](C)C[C@@]3(C)NC(=O)NC3=O)C[C@@H]2C)ccc1Cl (stereo in doubt) [Cpd 41, 5-[3-[4-(4-chloro-3-methoxy-phenyl)-3-methyl-piperazin-1-yl]-2-methyl-3-oxo-propyl]-5-methyl-imidazolidine-2,4-dione] | > 100 nM | 0.001 to 25 nM | 25 to 50 nM | 0.001 to 25 nM | – | > 100 nM | > 100 nM | – | > 100 nM |
| COc1cc(N2CCN(C(=O)[C@@H](C)C[C@@]3(C)NC(=O)NC3=O)C[C@@H]2C)cc(F)c1F (mixture of isomers) [Cpd 42, 5-[3-[(3S)-4-(3,4-difluoro-5-methoxy-phenyl)-3-methyl-piperazin-1-yl]-2-methyl-3-oxo-propyl]-5-methyl-imidazolidine-2,4-dione] | – | 0.001 to 25 nM | 0.001 to 25 nM | 0.001 to 25 nM | – | > 100 nM | > 100 nM | 25 to 50 nM | > 100 nM |
| COc1cc(N2CCN(C(=O)[C@@H](C)C[C@@]3(C)NC(=O)NC3=O)CC2)cc(F)c1F (stereo in doubt) [Cpd 43, 5-[3-[4-(3,4-difluoro-5-methoxy-phenyl)piperazin-1-yl]-2-methyl-3-oxo-propyl]-5-methyl-imidazolidine-2,4-dione] | – | 0.001 to 25 nM | 0.001 to 25 nM | 0.001 to 25 nM | – | > 100 nM | > 100 nM | 25 to 50 nM | > 100 nM |
| COc1cc(N2CCN(C(=O)CC[C@@]3(C4CC4)NC(=O)NC3=O)C[C@@H]2C)cc(F)c1F [Cpd 37, (5S)-5-cyclopropyl-5-[3-[(3 S)-4-(3,4-difluoro-5-methoxy-phenyl)-3-methyl-piperazin-1-yl]-3-oxo-propyl]imidazolidine-2,4-dione] | – | 0.001 to 25 nM | 0.001 to 25 nM | 0.001 to 25 nM | – | > 100 nM | > 100 nM | 25 to 50 nM | > 100 nM |
| COc1cc(N2CCN(C(=O)CCC3(C)NC(=O)NC3=O)C[C@@H]2C)ccc1Cl (stereo partly drawn) [Cpd 24, 5-[3-[(3S)-4-(4-chloro-3-methoxy-phenyl)-3-methyl-piperazin-1-yl]-3-oxo-propyl]-5-methyl-imidazolidine-2,4-dione] | > 100 nM | 50 to 100 nM | 25 to 50 nM | 0.001 to 25 nM | – | > 100 nM | > 100 nM | – | > 100 nM |
| COc1cc(F)cc(N2CCN(C(=O)[C@@H](C)C[C@@]3(C4CC4)NC(=O)NC3=O)CC2)c1 [Cpd 26, (5 S)-5-cyclopropyl-5-[(2S)-3-[4-(3-fluoro-5-methoxy-phenyl)piperazin-1-yl]-2-methyl-3-oxo-propyl]imidazolidine-2,4-dione] | – | 0.001 to 25 nM | 0.001 to 25 nM | 0.001 to 25 nM | – | – | > 100 nM | 0.001 to 25 nM | > 100 nM |
